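Interpolation was linear, between the two tested concentrations surrounding the appropriate level; five concentrations were tested over 48 hours in 96-well plates. GI50: concentration for 50% inhibition of growth.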 Active and inactive are the calls of the source. Cut-off read from the data, not from the text of the source: active = GI50 up to about 1.1 µM and inactive = higher.
Columns and labels:
Experiment in all cases: NCI anticancer screen, dose series, 48 h
[1] = system: OVCAR-4
[2] = system: OVCAR-8
[3] = system: 786-0
[4] = system: K562
[5] = system: M14
[6] = system: MCF7
[7] = system: SF-539
[8] = system: DU-145
[9] = system: PC-3
[10] = system: HCT-116
[11] = system: SR
[12] = system: MOLT-4
[13] = system: SF-268
[14] = system: MDA-MB-231
[15] = system: U-251
[16] = system: SK-MEL-5
[17] = system: SW-620
[18] = system: SNB-75
[19] = system: EKVX
[20] = system: CAKI-1

CC1(C)C2CC(O)C1(C)CC2=O (centres undefined)
GI50 [1]: > 100 µM (inactive) | GI50 [2]: > 100 µM (inactive) | GI50 [3]: > 100 µM (inactive) | GI50 [4]: > 100 µM (inactive) | GI50 [5]: > 100 µM (inactive) | GI50 [6]: > 100 µM (inactive) | GI50 [7]: > 100 µM (inactive) | GI50 [8]: > 100 µM (inactive) | GI50 [9]: > 100 µM (inactive) | GI50 [10]: > 100 µM (inactive) | GI50 [11]: > 100 µM (inactive) | GI50 [12]: > 100 µM (inactive) | GI50 [13]: > 100 µM (inactive) | GI50 [14]: > 100 µM (inactive) | GI50 [15]: > 100 µM (inactive) | GI50 [16]: > 100 µM (inactive) | GI50 [17]: > 100 µM (inactive) | GI50 [18]: > 100 µM (inactive)

CC(=O)N(C(=O)CC(=O)NNCc1ccccc1Cl)c1ccc(Cl)cc1
GI50 [1]: > 10 µM (inactive) | GI50 [2]: > 10 µM (inactive) | GI50 [3]: > 10 µM (inactive) | GI50 [4]: > 10 µM (inactive) | GI50 [5]: > 10 µM (inactive) | GI50 [19]: 4.99 µM (inactive) | GI50 [6]: 5.97 µM (inactive) | GI50 [7]: > 10 µM (inactive) | GI50 [8]: > 10 µM (inactive) | GI50 [9]: > 10 µM (inactive) | GI50 [10]: > 10 µM (inactive) | GI50 [11]: > 10 µM (inactive) | GI50 [12]: > 10 µM (inactive) | GI50 [13]: > 10 µM (inactive) | GI50 [14]: > 10 µM (inactive) | GI50 [15]: > 10 µM (inactive) | GI50 [16]: > 10 µM (inactive) | GI50 [20]: > 10 µM (inactive) | GI50 [18]: > 10 µM (inactive)

O=[N+]([O-])c1ccc(/C=N/CC2CCCN3CCCCC23)cc1 (centres undefined)
GI50 [1]: > 100 µM (inactive) | GI50 [2]: 43.2 µM (inactive) | GI50 [3]: 22.8 µM (inactive) | GI50 [4]: 19.5 µM (inactive) | GI50 [5]: 55 µM (inactive) | GI50 [19]: > 100 µM (inactive) | GI50 [6]: 24 µM (inactive) | GI50 [8]: > 100 µM (inactive) | GI50 [9]: > 100 µM (inactive) | GI50 [10]: 58.6 µM (inactive) | GI50 [11]: 4.22 µM (inactive) | GI50 [12]: 22.9 µM (inactive) | GI50 [13]: > 100 µM (inactive) | GI50 [14]: > 100 µM (inactive) | GI50 [15]: 40.6 µM (inactive) | GI50 [16]: > 100 µM (inactive) | GI50 [20]: > 100 µM (inactive) | GI50 [17]: 32.2 µM (inactive) | GI50 [18]: 31.6 µM (inactive)

COc1ccc(CNc2nc(NCc3ccc(OC)cc3)nc(N3CCOCC3)n2)cc1
GI50 [1]: 15.5 µM (inactive) | GI50 [2]: 6.81 µM (inactive) | GI50 [3]: 5.25 µM (inactive) | GI50 [4]: 4.55 µM (inactive) | GI50 [5]: 6.35 µM (inactive) | GI50 [19]: 37.4 µM (inactive) | GI50 [6]: 4.15 µM (inactive) | GI50 [7]: 4.27 µM (inactive) | GI50 [8]: 15.1 µM (inactive) | GI50 [9]: 4.05 µM (inactive) | GI50 [10]: 4.49 µM (inactive) | GI50 [11]: 2.79 µM (inactive) | GI50 [12]: 2.88 µM (inactive) | GI50 [14]: 6.12 µM (inactive) | GI50 [15]: 4.43 µM (inactive) | GI50 [16]: 5.41 µM (inactive) | GI50 [20]: 2.71 µM (inactive) | GI50 [17]: 4.25 µM (inactive) | GI50 [18]: 5.51 µM (inactive)

COc1ccc(/C=N/n2c(Cc3ccc(Cl)cc3)n[nH]c2=O)cc1
GI50 [1]: > 100 µM (inactive) | GI50 [2]: 16.7 µM (inactive) | GI50 [3]: 17.7 µM (inactive) | GI50 [4]: > 100 µM (inactive) | GI50 [5]: 45.7 µM (inactive) | GI50 [19]: 30.1 µM (inactive) | GI50 [6]: 77.8 µM (inactive) | GI50 [7]: 22.1 µM (inactive) | GI50 [8]: 30.3 µM (inactive) | GI50 [9]: 92.5 µM (inactive) | GI50 [10]: 24.9 µM (inactive) | GI50 [11]: 37.3 µM (inactive) | GI50 [12]: > 100 µM (inactive) | GI50 [14]: 8.93 µM (inactive) | GI50 [15]: 14.3 µM (inactive) | GI50 [20]: 30.8 µM (inactive) | GI50 [17]: > 100 µM (inactive) | GI50 [18]: 16.6 µM (inactive)

N#Cc1c(-c2ccco2)c2c(n(C3OC(CO)C(O)C(O)C3O)c1=S)CCCC2 (centres undefined)
GI50 [1]: > 100 µM (inactive) | GI50 [2]: > 100 µM (inactive) | GI50 [3]: > 100 µM (inactive) | GI50 [5]: > 100 µM (inactive) | GI50 [19]: > 100 µM (inactive) | GI50 [6]: > 100 µM (inactive) | GI50 [7]: > 100 µM (inactive) | GI50 [8]: > 100 µM (inactive) | GI50 [9]: > 100 µM (inactive) | GI50 [10]: > 100 µM (inactive) | GI50 [11]: > 100 µM (inactive) | GI50 [12]: > 100 µM (inactive) | GI50 [13]: > 100 µM (inactive) | GI50 [14]: > 100 µM (inactive) | GI50 [16]: 85.9 µM (inactive) | GI50 [20]: > 100 µM (inactive) | GI50 [18]: 0.0239 µM (active)

CCc1c(C)c(C#N)c(=S)n(C2OC(CO)C(O)C(O)C2O)c1C (centres undefined)
GI50 [1]: > 100 µM (inactive) | GI50 [2]: > 100 µM (inactive) | GI50 [3]: > 100 µM (inactive) | GI50 [4]: > 100 µM (inactive) | GI50 [5]: > 100 µM (inactive) | GI50 [19]: > 100 µM (inactive) | GI50 [6]: > 100 µM (inactive) | GI50 [7]: > 100 µM (inactive) | GI50 [8]: > 100 µM (inactive) | GI50 [9]: > 100 µM (inactive) | GI50 [10]: > 100 µM (inactive) | GI50 [11]: > 100 µM (inactive) | GI50 [12]: > 100 µM (inactive) | GI50 [13]: > 100 µM (inactive) | GI50 [14]: > 100 µM (inactive) | GI50 [15]: > 100 µM (inactive) | GI50 [16]: > 100 µM (inactive) | GI50 [17]: > 100 µM (inactive) | GI50 [18]: 65.2 µM (inactive)
